Results as given in ChEMBL document CHEMBL5136992, “Fascinating Transformation of SAM-Competitive Protein Methyltransferase Inhibitors from Nucleoside Analogues to Non-Nucleoside Analogues” (J Med Chem, 2022).
In brackets after ≈: the same amount, converted by molar mass.

What was measured:
[1] = target: T1, Histone-arginine methyltransferase CARM1 (Homo sapiens, UniProt Q86X55); assay: Inhibition of PRMT4 (unknown origin)
T1 sequence (Q86X55 whole entry): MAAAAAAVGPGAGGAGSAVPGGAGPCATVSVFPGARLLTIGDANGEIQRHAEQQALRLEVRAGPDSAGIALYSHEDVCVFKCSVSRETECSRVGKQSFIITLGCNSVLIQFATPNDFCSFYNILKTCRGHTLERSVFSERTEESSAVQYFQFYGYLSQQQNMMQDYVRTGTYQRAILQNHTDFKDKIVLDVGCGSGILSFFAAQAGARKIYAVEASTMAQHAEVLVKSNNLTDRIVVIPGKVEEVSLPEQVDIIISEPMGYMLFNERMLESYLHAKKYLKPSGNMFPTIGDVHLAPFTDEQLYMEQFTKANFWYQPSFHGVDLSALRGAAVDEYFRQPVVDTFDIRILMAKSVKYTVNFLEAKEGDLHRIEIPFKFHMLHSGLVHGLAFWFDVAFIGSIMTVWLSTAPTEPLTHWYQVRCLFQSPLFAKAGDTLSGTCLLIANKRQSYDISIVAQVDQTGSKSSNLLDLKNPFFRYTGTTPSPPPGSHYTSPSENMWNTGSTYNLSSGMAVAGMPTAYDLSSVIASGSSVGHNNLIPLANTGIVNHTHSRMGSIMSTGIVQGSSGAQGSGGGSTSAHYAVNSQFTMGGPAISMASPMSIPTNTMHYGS

[2] = target: T2, Histone-lysine N-methyltransferase EHMT2 (Homo sapiens, UniProt Q96KQ7); assay: Inhibition of G9a (unknown origin)
T2 sequence (Q96KQ7 whole entry): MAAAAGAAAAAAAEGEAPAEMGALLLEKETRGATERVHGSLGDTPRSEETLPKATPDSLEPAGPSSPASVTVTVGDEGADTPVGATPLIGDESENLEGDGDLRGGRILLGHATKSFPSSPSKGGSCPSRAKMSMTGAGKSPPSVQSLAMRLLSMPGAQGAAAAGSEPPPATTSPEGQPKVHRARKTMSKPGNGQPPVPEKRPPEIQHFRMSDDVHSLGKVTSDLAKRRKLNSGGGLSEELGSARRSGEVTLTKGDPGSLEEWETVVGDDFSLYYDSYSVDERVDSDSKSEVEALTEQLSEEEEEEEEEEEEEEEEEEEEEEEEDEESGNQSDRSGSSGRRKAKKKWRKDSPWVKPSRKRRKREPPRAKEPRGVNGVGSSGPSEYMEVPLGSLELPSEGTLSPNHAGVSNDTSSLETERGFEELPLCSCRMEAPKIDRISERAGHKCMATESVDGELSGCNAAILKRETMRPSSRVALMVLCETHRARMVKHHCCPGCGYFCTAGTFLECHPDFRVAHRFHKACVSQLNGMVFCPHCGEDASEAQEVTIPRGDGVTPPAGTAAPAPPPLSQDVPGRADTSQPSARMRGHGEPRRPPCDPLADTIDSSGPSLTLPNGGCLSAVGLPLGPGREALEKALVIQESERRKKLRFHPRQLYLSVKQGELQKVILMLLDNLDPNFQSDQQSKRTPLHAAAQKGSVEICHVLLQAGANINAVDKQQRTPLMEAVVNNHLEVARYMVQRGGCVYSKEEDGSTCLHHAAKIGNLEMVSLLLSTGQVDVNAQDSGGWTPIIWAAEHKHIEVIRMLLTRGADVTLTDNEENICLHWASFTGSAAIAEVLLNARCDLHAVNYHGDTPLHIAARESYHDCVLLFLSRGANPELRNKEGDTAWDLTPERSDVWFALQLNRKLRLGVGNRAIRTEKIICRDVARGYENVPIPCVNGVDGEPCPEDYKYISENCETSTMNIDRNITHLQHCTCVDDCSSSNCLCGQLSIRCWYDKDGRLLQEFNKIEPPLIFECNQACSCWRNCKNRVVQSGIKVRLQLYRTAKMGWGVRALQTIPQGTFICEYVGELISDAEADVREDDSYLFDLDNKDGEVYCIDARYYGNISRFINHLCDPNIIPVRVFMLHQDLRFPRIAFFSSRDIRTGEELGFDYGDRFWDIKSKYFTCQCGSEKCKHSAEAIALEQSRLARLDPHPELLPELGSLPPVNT

[3] = system: MV4-11; assay: Antiproliferative activity against human MV4-11 cells; assay type: functional, cell-based
[4] = target: Histone-lysine N-methyltransferase SETD2 (Homo sapiens, UniProt Q9BYW2); assay: Inhibition of SETD2 (unknown origin)
[5] = target: T3, Histone-lysine N-methyltransferase, H3 lysine-79 specific (Homo sapiens, UniProt Q8TEK3); assay: Inhibition of DOT1L (unknown origin)
[6] = target: T4, Histone-lysine N-methyltransferase EZH2 (Homo sapiens, UniProt Q15910); assay: Inhibition of EZH2 (unknown origin) assessed as residence time
Target sequence in this assay (Q15910 whole entry, looked up): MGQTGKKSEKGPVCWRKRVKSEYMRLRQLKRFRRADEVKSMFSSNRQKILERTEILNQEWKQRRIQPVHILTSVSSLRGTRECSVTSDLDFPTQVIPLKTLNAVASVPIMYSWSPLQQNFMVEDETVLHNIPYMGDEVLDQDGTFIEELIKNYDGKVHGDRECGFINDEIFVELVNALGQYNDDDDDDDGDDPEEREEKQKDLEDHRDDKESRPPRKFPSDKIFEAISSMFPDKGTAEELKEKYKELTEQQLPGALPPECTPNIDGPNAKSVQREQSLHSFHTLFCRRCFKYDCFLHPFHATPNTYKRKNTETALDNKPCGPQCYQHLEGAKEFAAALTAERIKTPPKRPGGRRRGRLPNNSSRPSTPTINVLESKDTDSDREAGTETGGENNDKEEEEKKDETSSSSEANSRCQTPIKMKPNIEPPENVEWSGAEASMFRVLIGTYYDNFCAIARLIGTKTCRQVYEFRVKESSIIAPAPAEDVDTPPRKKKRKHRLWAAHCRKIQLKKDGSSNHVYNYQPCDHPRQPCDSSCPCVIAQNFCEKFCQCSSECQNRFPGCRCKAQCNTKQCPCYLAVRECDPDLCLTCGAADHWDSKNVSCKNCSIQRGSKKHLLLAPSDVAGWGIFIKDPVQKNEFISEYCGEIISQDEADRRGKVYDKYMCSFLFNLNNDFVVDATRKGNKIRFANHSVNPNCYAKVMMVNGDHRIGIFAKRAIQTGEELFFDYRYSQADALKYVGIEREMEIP

[7] = target: T4, Histone-lysine N-methyltransferase EZH2; assay: Inhibition of EZH2 (unknown origin)
Target sequence in this assay (Q15910 whole entry): as the sequence (Q15910 whole entry, looked up) above

[8] = target: Protein arginine N-methyltransferase 5 (Homo sapiens, UniProt O14744); assay: Inhibition of PRMT5 (unknown origin)
[9] = cells; settings: Homo sapiens, MCF-10A
Description: Inhibition of methylation of H3K79 in human MCF-10A cells by fluorescence assay

[10] = target: T5, Histone-lysine N-methyltransferase EHMT1 (Homo sapiens, UniProt Q9H9B1); assay: Inhibition of EHMT1 (unknown origin)
T5 sequence (Q9H9B1 whole entry): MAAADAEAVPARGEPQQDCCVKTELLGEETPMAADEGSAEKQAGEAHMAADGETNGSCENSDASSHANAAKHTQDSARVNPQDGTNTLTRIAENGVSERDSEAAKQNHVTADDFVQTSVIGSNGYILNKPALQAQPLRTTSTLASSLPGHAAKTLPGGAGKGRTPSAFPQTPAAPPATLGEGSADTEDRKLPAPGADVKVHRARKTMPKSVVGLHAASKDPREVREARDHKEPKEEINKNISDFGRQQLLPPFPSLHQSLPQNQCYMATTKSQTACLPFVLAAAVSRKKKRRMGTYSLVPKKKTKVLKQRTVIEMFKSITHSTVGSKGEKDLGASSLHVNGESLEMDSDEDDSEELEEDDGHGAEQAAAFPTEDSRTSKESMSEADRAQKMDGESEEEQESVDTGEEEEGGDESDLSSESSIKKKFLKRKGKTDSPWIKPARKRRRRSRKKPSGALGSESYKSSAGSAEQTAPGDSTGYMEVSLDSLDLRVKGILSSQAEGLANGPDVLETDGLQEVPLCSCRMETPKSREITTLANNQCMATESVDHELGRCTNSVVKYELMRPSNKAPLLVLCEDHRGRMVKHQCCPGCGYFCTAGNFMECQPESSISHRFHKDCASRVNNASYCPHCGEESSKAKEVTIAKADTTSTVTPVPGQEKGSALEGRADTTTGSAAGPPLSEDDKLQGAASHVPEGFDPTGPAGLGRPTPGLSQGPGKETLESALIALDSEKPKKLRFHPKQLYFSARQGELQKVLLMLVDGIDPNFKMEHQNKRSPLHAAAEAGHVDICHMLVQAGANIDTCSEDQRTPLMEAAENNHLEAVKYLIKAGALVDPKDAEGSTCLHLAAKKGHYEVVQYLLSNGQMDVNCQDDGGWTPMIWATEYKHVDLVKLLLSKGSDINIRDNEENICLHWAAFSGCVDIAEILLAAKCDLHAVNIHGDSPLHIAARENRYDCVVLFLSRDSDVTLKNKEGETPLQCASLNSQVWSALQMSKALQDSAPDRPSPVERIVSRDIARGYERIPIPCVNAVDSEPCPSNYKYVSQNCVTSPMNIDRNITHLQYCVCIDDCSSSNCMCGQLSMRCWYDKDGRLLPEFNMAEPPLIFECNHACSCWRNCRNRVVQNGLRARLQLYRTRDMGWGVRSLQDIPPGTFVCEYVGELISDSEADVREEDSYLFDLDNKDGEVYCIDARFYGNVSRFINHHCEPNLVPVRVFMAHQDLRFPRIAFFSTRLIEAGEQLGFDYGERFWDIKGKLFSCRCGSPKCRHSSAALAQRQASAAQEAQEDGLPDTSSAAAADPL

[11] = target: T6, Histone-lysine N-methyltransferase SETD7 (Homo sapiens, UniProt Q8WTS6); assay: Inhibition of SET7 (unknown origin)
T6 sequence (Q8WTS6 whole entry): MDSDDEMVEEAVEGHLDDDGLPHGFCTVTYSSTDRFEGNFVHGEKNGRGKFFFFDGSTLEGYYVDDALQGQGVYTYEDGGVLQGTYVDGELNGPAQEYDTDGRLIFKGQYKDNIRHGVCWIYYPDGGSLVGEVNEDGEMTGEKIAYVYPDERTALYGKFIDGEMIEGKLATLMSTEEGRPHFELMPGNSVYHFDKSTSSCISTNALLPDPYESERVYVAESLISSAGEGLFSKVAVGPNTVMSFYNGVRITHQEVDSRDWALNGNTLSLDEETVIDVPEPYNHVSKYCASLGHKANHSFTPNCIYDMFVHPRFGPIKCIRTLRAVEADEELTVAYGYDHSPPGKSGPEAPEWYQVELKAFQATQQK

[12] = target: T7, Histone-lysine N-methyltransferase EZH2 (Homo sapiens, UniProt Q15910, Y641N); assay: Inhibition of EZH2 Y641N mutant (unknown origin)
[13] = target: T4, Histone-lysine N-methyltransferase EZH2; assay: Inhibition of wild type EZH2 (unknown origin)
Target sequence in this assay (Q15910 whole entry): as the sequence (Q15910 whole entry, looked up) above

[14] = target: T4, Histone-lysine N-methyltransferase EZH2; assay: Binding affinity to EZH2 (unknown origin) assessed as inhibition constant
Target sequence in this assay (Q15910 whole entry): as the sequence (Q15910 whole entry, looked up) above

[15] = target: T3, Histone-lysine N-methyltransferase, H3 lysine-79 specific; assay: Inhibition of human recombinant DOT1L by methyltransferase-Glo Bioluminescent assay
[16] = Aqueous solubility of the compound; assay type: physicochemical; settings: buffer
[17] = target: Protein arginine N-methyltransferase 1 (Homo sapiens, UniProt Q99873); assay: Inhibition of PRMT1 (unknown origin)
[18] = target: T7, Histone-lysine N-methyltransferase EZH2; assay: Binding affinity to EZH2 Y641N mutant (unknown origin) assessed as inhibition constant

T3 sequence (Q8TEK3 whole entry): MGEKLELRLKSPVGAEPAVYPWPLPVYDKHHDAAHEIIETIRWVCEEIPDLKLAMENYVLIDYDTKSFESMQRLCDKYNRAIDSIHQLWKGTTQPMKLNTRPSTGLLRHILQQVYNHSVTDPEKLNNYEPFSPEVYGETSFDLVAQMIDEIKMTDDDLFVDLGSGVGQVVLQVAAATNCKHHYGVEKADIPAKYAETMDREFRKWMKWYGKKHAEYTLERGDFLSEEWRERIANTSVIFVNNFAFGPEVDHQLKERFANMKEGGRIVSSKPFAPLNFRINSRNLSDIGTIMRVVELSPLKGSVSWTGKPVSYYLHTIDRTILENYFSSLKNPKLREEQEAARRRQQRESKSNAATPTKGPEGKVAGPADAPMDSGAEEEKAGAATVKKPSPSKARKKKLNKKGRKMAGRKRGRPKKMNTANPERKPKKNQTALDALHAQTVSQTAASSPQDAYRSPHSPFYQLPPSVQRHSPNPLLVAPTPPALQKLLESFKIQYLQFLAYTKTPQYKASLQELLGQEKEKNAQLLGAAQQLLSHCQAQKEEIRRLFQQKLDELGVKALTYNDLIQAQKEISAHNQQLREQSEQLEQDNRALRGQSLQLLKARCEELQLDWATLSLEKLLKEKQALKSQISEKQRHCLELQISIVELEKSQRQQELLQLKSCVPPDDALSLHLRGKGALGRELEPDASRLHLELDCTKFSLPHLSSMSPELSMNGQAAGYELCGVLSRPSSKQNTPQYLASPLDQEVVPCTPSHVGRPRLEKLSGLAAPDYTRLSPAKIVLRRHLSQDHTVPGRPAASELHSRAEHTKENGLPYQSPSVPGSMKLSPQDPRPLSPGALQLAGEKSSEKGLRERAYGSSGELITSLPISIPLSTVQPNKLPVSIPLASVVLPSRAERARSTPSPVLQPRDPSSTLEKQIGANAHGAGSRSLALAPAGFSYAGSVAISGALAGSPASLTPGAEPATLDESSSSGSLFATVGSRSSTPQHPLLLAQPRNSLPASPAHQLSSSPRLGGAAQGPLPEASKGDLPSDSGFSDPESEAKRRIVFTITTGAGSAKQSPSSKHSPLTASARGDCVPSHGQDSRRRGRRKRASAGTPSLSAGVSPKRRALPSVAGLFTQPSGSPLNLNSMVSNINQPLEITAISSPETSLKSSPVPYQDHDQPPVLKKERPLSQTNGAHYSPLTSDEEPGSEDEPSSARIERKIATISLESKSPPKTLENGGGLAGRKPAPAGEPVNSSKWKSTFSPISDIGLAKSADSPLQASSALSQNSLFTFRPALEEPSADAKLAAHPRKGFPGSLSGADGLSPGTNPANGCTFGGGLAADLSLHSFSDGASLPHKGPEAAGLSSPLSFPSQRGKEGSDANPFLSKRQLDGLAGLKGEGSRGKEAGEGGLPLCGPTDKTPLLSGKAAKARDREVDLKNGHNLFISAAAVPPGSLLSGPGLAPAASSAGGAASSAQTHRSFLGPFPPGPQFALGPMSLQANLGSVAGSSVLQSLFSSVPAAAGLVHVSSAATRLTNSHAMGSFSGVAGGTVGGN
Protein arginine N-methyltransferase 5, sequence (O14744 whole entry): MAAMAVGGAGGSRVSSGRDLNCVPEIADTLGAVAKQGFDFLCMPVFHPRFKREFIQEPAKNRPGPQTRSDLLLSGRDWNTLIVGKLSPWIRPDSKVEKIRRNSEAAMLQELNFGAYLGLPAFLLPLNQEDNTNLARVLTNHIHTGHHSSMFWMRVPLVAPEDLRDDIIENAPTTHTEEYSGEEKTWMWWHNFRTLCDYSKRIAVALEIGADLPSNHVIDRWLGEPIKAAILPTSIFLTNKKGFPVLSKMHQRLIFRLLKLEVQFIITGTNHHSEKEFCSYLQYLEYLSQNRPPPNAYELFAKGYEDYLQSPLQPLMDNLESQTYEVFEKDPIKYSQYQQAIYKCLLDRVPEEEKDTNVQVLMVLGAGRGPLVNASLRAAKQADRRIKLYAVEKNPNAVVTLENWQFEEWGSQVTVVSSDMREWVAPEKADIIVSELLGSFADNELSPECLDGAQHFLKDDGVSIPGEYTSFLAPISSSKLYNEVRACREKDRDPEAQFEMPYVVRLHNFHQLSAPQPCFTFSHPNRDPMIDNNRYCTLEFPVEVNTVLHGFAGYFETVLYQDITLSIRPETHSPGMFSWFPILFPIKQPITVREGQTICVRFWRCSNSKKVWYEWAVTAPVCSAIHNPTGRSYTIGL
T7 sequence (Q15910 whole entry Y641N): as the sequence (Q15910 whole entry, looked up) above, with Y641N counted along it
Protein arginine N-methyltransferase 1, sequence (Q99873 whole entry): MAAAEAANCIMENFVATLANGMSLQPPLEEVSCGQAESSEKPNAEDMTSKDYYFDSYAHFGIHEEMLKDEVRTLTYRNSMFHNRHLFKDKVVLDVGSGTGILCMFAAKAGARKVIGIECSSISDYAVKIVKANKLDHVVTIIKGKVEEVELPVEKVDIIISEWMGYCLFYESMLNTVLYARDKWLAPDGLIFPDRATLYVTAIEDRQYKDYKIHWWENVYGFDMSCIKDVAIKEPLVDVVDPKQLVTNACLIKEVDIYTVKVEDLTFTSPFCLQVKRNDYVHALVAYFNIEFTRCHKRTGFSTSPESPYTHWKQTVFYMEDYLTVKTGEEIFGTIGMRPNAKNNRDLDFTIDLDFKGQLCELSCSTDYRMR

Nc1ncnc2c1ncn2[C@H]1O[C@@H](CN(CCI)CCC[C@H](N)C(=O)O)[C@H](O)[C@@H]1O
IC50 [1]: 1100 nM | IC50 [2]: 1800 nM

Cc1cc(Nc2ccc3nc(C)cc(N)c3c2)nc(Nc2ccc3nc(C)cc(N)c3c2)n1
IC50 [3]: 37100 nM

CCCN(CC[C@H](N)C(=O)O)C[C@@H]1O[C@H](n2cnc3c(N)ncnc32)[C@@H](O)[C@H]1O
IC50 [4]: 800 nM

NC(=O)CNC(=O)Nc1ccc2ccn(-c3ccccc3Cl)c2c1
IC50 [5]: 9000 nM

CSc1cc(C)[nH]c(=O)c1CNC(=O)c1c(C)n([C@@H](C)[C@H]2CC[C@H](N3CC(OC4CC4)C3)CC2)c2ccccc12
TIME [6]: 57 h | IC50 [7]: 0.057 nM

Nc1ncnc2c1ccn2[C@H]1O[C@@H]([C@H](O)c2ccccc2)[C@H](O)[C@@H]1O
IC50 [8]: 9.5 nM

CNc1ccnc(Nc2ccc3sc(Cl)c(-c4cc(-c5c(C)ncn(C)c5=O)cnc4Cl)c3c2)n1
IC50 [5]: 1400 nM | IC50 [9]: 23 nM

Nc1ncnc2c1ncn2[C@H]1O[C@@H](CSCC[C@H](N)C(=O)NCc2cc(-c3ccccc3)[nH]n2)[C@H](O)[C@@H]1O
IC50 [7]: 270 nM

Nc1ncnc2c1ncn2[C@H]1O[C@@H](C[C@H](N)CC[C@H](N)C(=O)O)[C@H](O)[C@@H]1O
IC50 [10]: 513000 nM | IC50 [11]: 2500 nM | IC50 [5]: 26000 nM

CCCCCCNCCN(CC[C@H](N)C(=O)O)C[C@@H]1O[C@H](n2cnc3c(N)ncnc32)[C@@H](O)[C@H]1O
IC50 [11]: > 10000 nM

CCC(CC)n1ncc2c(C(=O)NCc3c(C)cc(C)[nH]c3=O)cc(C3CC3)nc21
IC50 [7]: 149 nM

CCC(CC)n1ncc2c(C(=O)NCc3c(C)cc(C)[nH]c3=O)cc(C#N)cc21
IC50 [12]: 13 nM | IC50 [13]: 15 nM

CNc1ccnc(Nc2ccc3cc(C)n(-c4ccccc4Oc4cnc5c(c4)ncn5C)c3c2)n1
IC50 [9]: 16 nM

Cc1cc(C)c(CNC(=O)c2c(C)n([C@H](C)C3CCN(CC(F)(F)F)CC3)c3ccccc23)c(=O)[nH]1
IC50 [7]: 22 nM

CCNC(=O)NCCCSC[C@@H]1O[C@H](n2cnc3c(N)ncnc32)[C@@H](O)[C@H]1O
IC50 [8]: 6000 nM

Cc1coc2c1C(=O)C(=O)c1c-2ccc2c1CC[C@@H](O)[C@]2(C)O
Ki [14]: 194 nM | IC50 [7]: 550 nM

CC(C)(C)c1ccc(CC(=O)c2ncn(CC(=O)NCCn3ccc4c(N)ncnc43)n2)cc1
IC50 [5]: 1000 nM

CCCc1cc(C)[nH]c(=O)c1CNC(=O)c1cc(-c2ccc(N3CCN(C(C)C)CC3)nc2)cc2c1cnn2C(C)C
IC50 [7]: < 10 nM

COc1cc([C@H]2Oc3c(O)cc(CCCO)cc3[C@@H]2CO)ccc1O[C@@H]1O[C@@H](C)[C@@H](O)[C@@H](O)[C@H]1O
IC50 [15]: 399 nM

Cc1cc(C)c(CN2CCc3c(Cl)cc(-c4c(C)noc4C)c(Cl)c3C2=O)c(=O)[nH]1
solubility [16]: 0.002 mg/mL (≈ 4.48 µM) | IC50 [7]: < 5 nM

N=C(N)NCCCN(CCCN)C[C@@H]1O[C@H](n2cnc3c(N)ncnc32)[C@@H](O)[C@H]1O
IC50 [1]: 2300 nM | IC50 [17]: 7200 nM

CC(C)N(CCCNC(=O)Nc1ccc(C(C)(C)C)cc1)C[C@@H]1O[C@H](n2cc(Br)c3c(N)ncnc32)[C@@H](O)[C@H]1O
IC50 [9]: 8.8 nM

CN(CCCNC(=O)CNC(=O)Nc1ccc2sc(Cl)c(-c3cccnc3)c2c1)[C@@H]1CCCC(c2ncnc3[nH]ccc23)C1 (stereo partly drawn)
IC50 [5]: < 100 nM

NCCCN(CCCNc1ccccn1)C[C@@H]1O[C@H](n2cnc3c(N)ncnc32)[C@@H](O)[C@H]1O
IC50 [1]: 90 nM

Nc1ncnc2ccc(N(CC#CC(O)c3nccn3CCO)c3c(Cl)cccc3Cl)cc12 (stereo not drawn)
IC50 [5]: 14000 nM

COc1cccc(C(=O)NCc2c(C)cc(C)[nH]c2=O)c1Cl
IC50 [7]: 7.2 nM

CO[C@@H](c1cc(Cl)c2c(c1Cl)C(=O)N(Cc1c(C)cc(C)[nH]c1=O)CC2)C1COC1
solubility [16]: 0.315 mg/mL (≈ 698 µM) | Ki [18]: < 0.1 nM

Nc1cccc(CCC[C@@H]2C[C@H](n3ccc4c(N)ncnc43)[C@@H](O)[C@H]2O)n1
IC50 [8]: 0.4 nM
